Reference: ChEMBL document CHEMBL1201862, “PubChem BioAssay data set” (2004)
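In this assay, cells in 96-well plates receive the compound at five concentrations for 48 hours. Endpoints are linearly interpolated between the surrounding concentrations. The concentration for 50% growth inhibition is given as GI50.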 Activity calls are given as the source filed them. Cut-off read from the data, not from the text of the source: active = GI50 up to about 1.1 µM and inactive = higher.

Legend:
Test in all cases: NCI tumour cell line growth inhibition, 48 h
A549 = test system: A549
OVCAR-5 = test system: OVCAR-5
HCT-116 = test system: HCT-116
DLD-1 = test system: DLD-1
ACHN = test system: ACHN
Malme-3M = test system: Malme-3M
SF-295 = test system: SF-295
HT-29 = test system: HT-29
SNB-78 = test system: SNB-78
MOLT-4 = test system: MOLT-4
UO-31 = test system: UO-31
KM-20L2 = test system: KM-20L2
OVCAR-8 = test system: OVCAR-8
CCRF-CEM = test system: CCRF-CEM
SK-OV-3 = test system: SK-OV-3
OVCAR-4 = test system: OVCAR-4
SF-268 = test system: SF-268
COLO 205 = test system: COLO 205
SR = test system: SR
786-0 = test system: 786-0
M14 = test system: M14
DMS-273 = test system: DMS-273
DMS-114 = test system: DMS-114
NCI-H522 = test system: NCI-H522
UACC-257 = test system: UACC-257
HCC 2998 = test system: HCC 2998
RPMI-8226 = test system: RPMI-8226
TK-10 = test system: TK-10
HOP-92 = test system: HOP-92
HL-60 = test system: HL-60
CAKI-1 = test system: CAKI-1
SW-620 = test system: SW-620
HOP-18 = test system: HOP-18
SF-539 = test system: SF-539
RXF 393 = test system: RXF 393
UACC-62 = test system: UACC-62
NCI-H226 = test system: NCI-H226
IGROV-1 = test system: IGROV-1
SN12C = test system: SN12C
KM12 = test system: KM12
HCT-15 = test system: HCT-15
A498 = test system: A498
SK-MEL-5 = test system: SK-MEL-5
LOX IMVI = test system: LOX IMVI
NCI-H23 = test system: NCI-H23
K562 = test system: K562
HOP-62 = test system: HOP-62
SK-MEL-28 = test system: SK-MEL-28
SNB-19 = test system: SNB-19
SK-MEL-2 = test system: SK-MEL-2
U-251 = test system: U-251
RXF 631 = test system: RXF 631
SNB-75 = test system: SNB-75
NCI-H460 = test system: NCI-H460
OVCAR-3 = test system: OVCAR-3
EKVX = test system: EKVX
LXFL 529 = test system: LXFL 529
M19-MEL = test system: M19-MEL
XF498 = test system: XF498

With `COc1cccc(CC(C)N)c1` (stereo not given) the GI50 (A549) was > 100 µM (inactive), the GI50 (OVCAR-5) was > 100 µM (inactive) and the GI50 (HCT-116) was > 100 µM (inactive). The GI50 (DLD-1) was > 100 µM (inactive), the GI50 (ACHN) was > 100 µM (inactive) and the GI50 (Malme-3M) was > 100 µM (inactive). For the same compound, the GI50 (SF-295) was > 100 µM (inactive), the GI50 (HT-29) was > 100 µM (inactive) and the GI50 (SNB-78) was > 100 µM (inactive). For the same compound, the GI50 (MOLT-4) was > 100 µM (inactive), the GI50 (UO-31) was > 100 µM (inactive) and the GI50 (KM-20L2) was > 100 µM (inactive). The GI50 (OVCAR-8) was > 100 µM (inactive), the GI50 (CCRF-CEM) was > 100 µM (inactive) and the GI50 (SK-OV-3) was > 100 µM (inactive). For the same compound, the GI50 (OVCAR-4) was > 100 µM (inactive), the GI50 (SF-268) was > 100 µM (inactive) and the GI50 (COLO 205) was > 100 µM (inactive). For the same compound, the GI50 (SR) was > 100 µM (inactive), the GI50 (786-0) was > 100 µM (inactive) and the GI50 (M14) was > 100 µM (inactive). The GI50 (DMS-273) was > 100 µM (inactive), the GI50 (DMS-114) was > 100 µM (inactive) and the GI50 (NCI-H522) was > 100 µM (inactive). The GI50 (UACC-257) was > 100 µM (inactive), the GI50 (HCC 2998) was > 100 µM (inactive) and the GI50 (RPMI-8226) was > 100 µM (inactive). The GI50 (TK-10) was > 100 µM (inactive), the GI50 (HOP-92) was > 100 µM (inactive) and the GI50 (HL-60) was > 100 µM (inactive). The GI50 (CAKI-1) was > 100 µM (inactive), the GI50 (SW-620) was > 100 µM (inactive) and the GI50 (HOP-18) was > 100 µM (inactive). The GI50 (SF-539) was > 100 µM (inactive), the GI50 (RXF 393) was > 100 µM (inactive) and the GI50 (UACC-62) was > 100 µM (inactive). For the same compound, the GI50 (NCI-H226) was > 100 µM (inactive), the GI50 (IGROV-1) was > 100 µM (inactive) and the GI50 (SN12C) was > 100 µM (inactive). The GI50 (KM12) was > 100 µM (inactive), the GI50 (HCT-15) was > 100 µM and the GI50 (A498) was > 100 µM (inactive). The GI50 (SK-MEL-5) was > 100 µM (inactive), the GI50 (LOX IMVI) was > 100 µM (inactive) and the GI50 (NCI-H23) was > 100 µM (inactive). For the same compound, the GI50 (K562) was > 100 µM (inactive), the GI50 (HOP-62) was > 100 µM (inactive) and the GI50 (SK-MEL-28) was > 100 µM (inactive). The GI50 (SNB-19) was > 100 µM (inactive), the GI50 (SK-MEL-2) was > 100 µM (inactive) and the GI50 (U-251) was > 100 µM (inactive). For the same compound, the GI50 (RXF 631) was > 100 µM (inactive), the GI50 (SNB-75) was > 100 µM (inactive) and the GI50 (NCI-H460) was > 100 µM (inactive). The GI50 (OVCAR-3) was > 100 µM (inactive), the GI50 (EKVX) was > 100 µM (inactive) and the GI50 (LXFL 529) was > 100 µM (inactive).
`O=c1[nH]c(-c2ccccc2)nc2cc(Cl)ccc12` was tested, and the GI50 (A549) was > 100 µM (inactive), the GI50 (OVCAR-5) was > 100 µM (inactive) and the GI50 (HCT-116) was > 100 µM (inactive). For the same compound, the GI50 (DLD-1) was > 100 µM (inactive), the GI50 (ACHN) was > 100 µM (inactive) and the GI50 (Malme-3M) was > 100 µM (inactive). For the same compound, the GI50 (SF-295) was > 100 µM (inactive), the GI50 (HT-29) was > 100 µM (inactive) and the GI50 (SNB-78) was > 100 µM (inactive). The GI50 (MOLT-4) was > 100 µM (inactive), the GI50 (UO-31) was > 100 µM (inactive) and the GI50 (KM-20L2) was > 100 µM (inactive). For the same compound, the GI50 (OVCAR-8) was > 100 µM (inactive), the GI50 (CCRF-CEM) was > 100 µM (inactive) and the GI50 (SK-OV-3) was > 100 µM (inactive). The GI50 (OVCAR-4) was > 100 µM (inactive), the GI50 (786-0) was > 100 µM (inactive) and the GI50 (M14) was > 100 µM (inactive). The GI50 (DMS-273) was > 100 µM (inactive), the GI50 (DMS-114) was > 100 µM (inactive) and the GI50 (UACC-257) was > 100 µM (inactive). The GI50 (HCC 2998) was > 100 µM (inactive), the GI50 (RPMI-8226) was > 100 µM (inactive) and the GI50 (TK-10) was > 100 µM (inactive). The GI50 (HL-60) was > 100 µM (inactive), the GI50 (CAKI-1) was > 100 µM (inactive) and the GI50 (M19-MEL) was > 100 µM (inactive). The GI50 (SW-620) was > 100 µM (inactive), the GI50 (SF-539) was > 100 µM (inactive) and the GI50 (RXF 393) was > 100 µM (inactive). The GI50 (UACC-62) was > 100 µM (inactive), the GI50 (NCI-H226) was 73.3 µM (inactive) and the GI50 (IGROV-1) was > 100 µM (inactive). For the same compound, the GI50 (KM12) was > 100 µM (inactive), the GI50 (HCT-15) was > 100 µM and the GI50 (XF498) was > 100 µM (inactive). For the same compound, the GI50 (A498) was > 100 µM (inactive), the GI50 (SK-MEL-5) was > 100 µM (inactive) and the GI50 (NCI-H23) was > 100 µM (inactive). The GI50 (K562) was > 100 µM (inactive), the GI50 (HOP-62) was > 100 µM (inactive) and the GI50 (SK-MEL-28) was > 100 µM (inactive). The GI50 (SK-MEL-2) was > 100 µM (inactive), the GI50 (U-251) was > 100 µM (inactive) and the GI50 (RXF 631) was > 100 µM (inactive). For the same compound, the GI50 (SNB-75) was > 100 µM (inactive), the GI50 (NCI-H460) was > 100 µM (inactive) and the GI50 (OVCAR-3) was > 100 µM (inactive). The GI50 (EKVX) was > 100 µM (inactive) and the GI50 (LXFL 529) was > 100 µM (inactive).
`COc1ccc2nc3c(c(NCCCN(C)C)c2c1)CCCC3` was tested, and the GI50 (A549) was 21.4 µM (inactive), the GI50 (OVCAR-5) was 13.5 µM (inactive) and the GI50 (HCT-116) was 4.74 µM (inactive). The GI50 (DLD-1) was 7.66 µM (inactive), the GI50 (ACHN) was 20.4 µM (inactive) and the GI50 (Malme-3M) was 19.7 µM (inactive). The GI50 (SF-295) was 14.6 µM (inactive), the GI50 (HT-29) was 5.41 µM (inactive) and the GI50 (SNB-78) was 7.83 µM (inactive). For the same compound, the GI50 (MOLT-4) was 3.4 µM (inactive), the GI50 (UO-31) was 16 µM (inactive) and the GI50 (KM-20L2) was 6.7 µM (inactive). For the same compound, the GI50 (OVCAR-8) was 15 µM (inactive), the GI50 (CCRF-CEM) was 4.83 µM (inactive) and the GI50 (SK-OV-3) was 20.5 µM (inactive). The GI50 (OVCAR-4) was 4.43 µM (inactive), the GI50 (SF-268) was > 10 µM (inactive) and the GI50 (COLO 205) was 10.8 µM (inactive). The GI50 (SR) was 2.42 µM (inactive), the GI50 (786-0) was 15.4 µM (inactive) and the GI50 (M14) was 13.3 µM (inactive). For the same compound, the GI50 (DMS-273) was 11.8 µM (inactive), the GI50 (DMS-114) was 13.9 µM (inactive) and the GI50 (NCI-H522) was 14.9 µM (inactive). The GI50 (UACC-257) was 17 µM (inactive), the GI50 (HCC 2998) was 8.81 µM (inactive) and the GI50 (RPMI-8226) was 6.25 µM (inactive). The GI50 (TK-10) was 26.1 µM (inactive), the GI50 (HOP-92) was 5.28 µM (inactive) and the GI50 (HL-60) was 7.67 µM (inactive). The GI50 (CAKI-1) was 11.9 µM (inactive), the GI50 (M19-MEL) was 17.1 µM (inactive) and the GI50 (SW-620) was 10.7 µM (inactive). The GI50 (SF-539) was 16.8 µM (inactive), the GI50 (RXF 393) was 14.8 µM (inactive) and the GI50 (UACC-62) was 16.8 µM (inactive). The GI50 (NCI-H226) was 16.3 µM (inactive), the GI50 (IGROV-1) was 19.3 µM (inactive) and the GI50 (SN12C) was 17.2 µM (inactive). The GI50 (KM12) was 12.5 µM (inactive), the GI50 (HCT-15) was 16.3 µM and the GI50 (XF498) was 4.15 µM (inactive). The GI50 (A498) was 20.3 µM (inactive), the GI50 (SK-MEL-5) was 15.8 µM (inactive) and the GI50 (LOX IMVI) was 12.8 µM (inactive). For the same compound, the GI50 (NCI-H23) was 17.1 µM (inactive), the GI50 (K562) was 2.25 µM (inactive) and the GI50 (HOP-62) was 16.4 µM (inactive). For the same compound, the GI50 (SK-MEL-28) was 16.9 µM (inactive), the GI50 (SNB-19) was 21.6 µM (inactive) and the GI50 (SK-MEL-2) was 17.3 µM (inactive). The GI50 (U-251) was 15.5 µM (inactive), the GI50 (RXF 631) was 14.9 µM (inactive) and the GI50 (SNB-75) was 13.2 µM (inactive). The GI50 (NCI-H460) was 10.3 µM (inactive), the GI50 (OVCAR-3) was 19.4 µM (inactive) and the GI50 (EKVX) was 17.4 µM (inactive). For the same compound, the GI50 (LXFL 529) was 12.7 µM (inactive).
